Measured values taken from PubChem BioAssay (NCI).
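Method: 48-hour compound exposure of cells in 96-well plates, five concentrations, linear interpolation of endpoints. The concentration for 50% growth inhibition is given as GI50. TGI: concentration producing complete growth inhibition.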

Assays:
Experiment in all cases: inhibition of tumour cell growth, NCI panel, 48 h
CAKI-1 renal = system: CAKI-1 renal
MALME-3M melanoma = system: MALME-3M melanoma
HOP-92 NSCLC = system: HOP-92 NSCLC
OVCAR-5 ovarian = system: OVCAR-5 ovarian
HL-60(TB) leukemia = system: HL-60(TB) leukemia
HT29 colon = system: HT29 colon
RPMI-8226 leukemia = system: RPMI-8226 leukemia
OVCAR-8 ovarian = system: OVCAR-8 ovarian
COLO 205 colon = system: COLO 205 colon
SW-620 colon = system: SW-620 colon

| SMILES | TGI (CAKI-1 renal) [µM] | TGI (MALME-3M melanoma) [µM] | TGI (HOP-92 NSCLC) [µM] | TGI (OVCAR-5 ovarian) [µM] | TGI (HL-60(TB) leukemia) [µM] | TGI (HT29 colon) [µM] | TGI (RPMI-8226 leukemia) [µM] | TGI (OVCAR-8 ovarian) [µM] | TGI (COLO 205 colon) [µM] | TGI (SW-620 colon) [µM] | GI50 (CAKI-1 renal) [µM] | GI50 (MALME-3M melanoma) [µM] | GI50 (HOP-92 NSCLC) [µM] | GI50 (OVCAR-5 ovarian) [µM] | GI50 (HL-60(TB) leukemia) [µM] | GI50 (HT29 colon) [µM] | GI50 (RPMI-8226 leukemia) [µM] | GI50 (OVCAR-8 ovarian) [µM] | GI50 (COLO 205 colon) [µM] | GI50 (SW-620 colon) [µM] |
| --- | --- | --- | --- | --- | --- | --- | --- | --- | --- | --- | --- | --- | --- | --- | --- | --- | --- | --- | --- | --- |
| COc1cc2c(cc1OC)C1C=NC(C(=O)O)(C2)c2ccccc21 (centres undefined) | > 100 | > 100 | > 100 | > 100 | > 100 | > 100 | > 100 | > 100 | > 100 | > 100 |  |  |  |  |  |  |  |  |  |  |
| COc1cc2c(NCCCCCCO[N+](=O)[O-])ncnc2c(OC)c1OC | 62.3 | 31.9 | 47.1 | > 92.7 | 54.8 | > 62 | 32.2 | 64.4 | 51.6 | 70.5 |  |  |  |  |  |  |  |  |  |  |
| NS(=O)(=O)c1ccc(-n2nc(-c3ccc(Br)cc3)ccc2=O)cc1 | > 10 | > 10 | > 10 | > 10 | > 10 | > 10 | > 10 | > 10 | > 10 | > 10 | > 10 | 7.71 | > 10 | > 10 | > 10 | > 10 | > 10 | > 10 | > 10 | > 10 |
| CN(C)CCNC(=O)c1cccc2nc3c(Cl)cccc3nc12 | > 70.8 | 8.05 | > 24.2 | 16.7 | > 100 | 15.9 | 82.6 | > 44.3 | > 37.3 | > 40.4 |  |  |  |  |  |  |  |  |  |  |
| COc1ccccc1NC(=O)c1ccc(/C=C/C(=O)c2nccn2C)cc1 | 1.32 | 1.73 | 5.01 | 1.73 | 1.41 | 1.78 | 1.46 | 10.1 | 1.29 | 1.22 | 0.453 | 0.616 | 0.673 | 0.619 | 0.547 | 0.644 | 0.429 | 0.916 | 0.552 | 0.473 |
| COc1cc2c(c(OC)c1OC)-c1ccc(NCc3ccccc3)c(=O)cc1[C@@H](NC(C)=O)CC2 | 45.8 | 40.2 | 4.1 | > 100 |  | 11.9 | 16.3 | 65 | 0.638 | > 100 | 3.23 | 0.72 | 0.318 | 0.723 | 0.353 | 0.373 | 0.531 | 0.444 | 0.277 | 0.391 |
| CN1CCN(Cc2ccc(NC(=O)c3cncc(C#Cc4cnc(N)c5ccccc45)c3)cc2C(F)(F)F)CC1 | 0.7 | 0.774 | 1.25 | 1.11 | 0.665 | 1.29 | 1.41 | 1.46 | 0.948 | 0.421 | 0.271 | 0.315 | 0.401 | 0.457 | 0.165 | 0.28 | 0.441 | 0.473 | 0.405 | 0.125 |
| COc1ccc(CN2CCCC(C(=O)c3ccc(C(F)(F)F)cc3)C2)c(O)c1 (centres undefined) | > 100 | 35.5 | 58 | 66.1 | 62 | 33.9 | 62.4 | > 100 | 36.7 | 41.2 | 22.1 | 18.2 | 11.1 | 20.2 | 24.9 | 14.4 | 22 | 36.6 | 19.3 | 18.6 |
| CCOc1ccc2nc(NC(=O)/C(CC(=O)CC(C3=C(O)c4ccccc4CC3=O)c3ccccc3)=N\O)sc2c1 (centres undefined) | > 100 | > 100 | > 100 | > 100 | > 100 | > 100 | > 100 | > 100 | > 100 | > 100 |  |  |  |  |  |  |  |  |  |  |
| O=C1Oc2cc3c(c4cccc1c24)OCN(c1ccc(Cl)cc1)C3 | > 100 | > 60.7 | 49.1 | > 77.3 | > 55.5 | > 100 | 42.1 | > 100 | > 100 | > 55.3 |  |  |  |  |  |  |  |  |  |  |
| CCCNC(=O)OCc1c(COC(=O)NCCC)c(-c2ccc(Cl)c(Cl)c2)n2c1CCC2 | 8.2 | 9.72 | 9.98 | 20.4 | 7.7 | 19.2 | 24.4 | 16.9 | 13.2 | 20.6 |  |  |  |  |  |  |  |  |  |  |
| O=C1c2ccccc2C(=O)c2c1ccc1[nH]c(CCl)nc21 | 9.89 | 10.9 | 6.26 | 24.5 | 7 | 4.77 | 5.87 | 15.7 | 8.62 | 3.3 | 2.61 | 2.82 | 1.58 | 10.2 | 2.64 | 1.89 | 1.83 | 3.68 | 2.54 | 1.56 |
| O=C(O)c1cc(S(=O)(=O)N=NC=C2c3ccccc3N(O)c3ccccc32)ccc1O | > 100 | 50.3 | 30.1 | > 100 | 23.7 | > 100 | 76.6 | > 100 | 37.6 | > 100 |  |  |  |  |  |  |  |  |  |  |
| S=C1NCCN1C1=Nc2ccccc2CO1 | > 100 | > 100 | > 100 | > 100 | > 100 | > 100 | > 100 | > 100 | > 100 | > 100 | > 100 | > 100 | > 100 | > 100 | > 100 | > 100 | > 100 | > 100 | > 100 | > 100 |
| CN(C)c1ccc(/C=C2\C[N+](C)(C)C/C(=C\c3ccc(N(C)C)cc3)C2=O)cc1 | > 100 | 46.4 | 78.9 | 96.5 | 13.1 | 24 | 28.5 | 65.7 | 8.36 | 43.2 |  |  |  |  |  |  |  |  |  |  |
